Assay results from publication PMC5831498 (Virus research, 2018).
Read-outs that look alike come from different tables or passages of the source. Marks after values point to notes of the source that are not given here. Bridge positions count the residues as written; N and C are the ends. Square brackets hold non-standard residues; d marks the D form. Peptide text beside a SMILES is read from it. * marks the point of attachment. Ileψ(thiazoline)Cys = CC[C@H](C)[C@H](N)C1=N[C@H](C(=O)*)CS1; dOrn = NCCC[C@@H](N)C(=O)O

Experiments:
[1] = tested on: Human influenza A virus (A/WS/33 [H1N1]); test: microbe, parasite or virus in culture; assay type: cell-based; conditions: for SI for A/WS/33 (selectivity index): CC50/EC50, MDCK cells; for EC50: read-out: EC50 A/WS/33; for inhibition of replication of A/WS/33 (in words): MDCK cells
[2] = tested on: Swine influenza A virus (A/swine/OH/511445/2007 [H1N1], Oh7); test: microbe, parasite or virus in culture; assay type: cell-based; conditions: read-out: EC50 A/swine/OH/2007
[3] = tested on: influenza B virus (B/Lee/40); test: Antiviral assay, virus titration by TCID50, MDCK cells; assay type: cell-based; conditions: for EC50: Influenza B virus, MDCK, read-out: EC50 B/Lee/40; for inhibition of replication of B/Lee/40 (in words): MDCK cells
[4] = Nonspecific cytotoxicity, CytoTox 96 assay; assay type: cell-based, canine; conditions: dog, MDCK cells
PDI1 enzyme = PDI1 enzyme (Homo sapiens, UniProt P07237); test: ProteoStat PDI assay; assay type: biochemical; conditions: for PDI1 activity relative to mock: mock = 100, SD in parentheses; for effect on PDI1 activity (in words): at 10 or 50 µM
A/WS/33 = assay type: cell-based, influenza A virus
MDCK cells = test: Nonspecific cytotoxicity, CytoTox 96 assay; assay type: cell-based, canine; conditions: 24 hr treatment, SD in parentheses
Group A rotavirus SA11 = test: Rotavirus replication in MA104 cells; assay type: cell-based
[5] = Influenza A virus, H1N1, MDCK, in Sus scrofa

Sequence of PDI1 enzyme (P07237 18-508): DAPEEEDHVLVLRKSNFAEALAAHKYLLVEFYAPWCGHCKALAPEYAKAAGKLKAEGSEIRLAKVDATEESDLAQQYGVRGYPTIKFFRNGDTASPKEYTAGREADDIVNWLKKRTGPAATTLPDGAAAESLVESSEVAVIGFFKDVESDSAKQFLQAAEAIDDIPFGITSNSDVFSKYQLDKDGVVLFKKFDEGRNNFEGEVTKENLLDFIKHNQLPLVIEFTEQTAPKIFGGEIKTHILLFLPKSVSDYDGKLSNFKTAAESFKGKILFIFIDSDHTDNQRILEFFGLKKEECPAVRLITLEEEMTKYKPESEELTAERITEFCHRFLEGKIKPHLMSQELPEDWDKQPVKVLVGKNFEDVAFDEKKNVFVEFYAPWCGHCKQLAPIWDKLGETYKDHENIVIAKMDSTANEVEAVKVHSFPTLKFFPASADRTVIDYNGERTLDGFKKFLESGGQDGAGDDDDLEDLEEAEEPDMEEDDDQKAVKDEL

With `C/C1=C/[C@H](O)C(C)(C)CCC/C(C)=C/C[C@H]1OC(=O)c1ccc(O)cc1` [Juniferdin, juniferdin] the “SI for A/WS/33 (selectivity index)” value [1] was 8.8, the EC50 ([1]; Influenza A virus, H1N1, MDCK) was 1.5 µM and the EC50 [2, 5] was 1.8 µM. The EC50 [3] was 3.1 µM, the CC50 at 24 h [4] was 13.2 µM and the “PDI1 activity relative to mock” value (PDI1 enzyme; compound at 10 µM) was 41 (5) ^* %. For the same molecule, the “PDI1 activity relative to mock” value (PDI1 enzyme; compound at 50 µM) was 6 (4) ^* % and the “reduction of viral proteins (NP or M1), Western blot” value (A/WS/33) was “dose-dependent”.

With `NC12CC3CC(CC(C3)C1)C2` [Amantidine, amantadine] the “SI for A/WS/33 (selectivity index)” value [1] was over 83.3, the EC50 ([1]; Influenza A virus, H1N1, MDCK) was 1.2 µM and the “inhibition of replication of A/WS/33 (in words)” value [1] was “potently inhibited”. For the same molecule, the EC50 [2, 5] was 1.4 µM, the EC50 [3] was over 100 µM and the CC50 at 24 h [4] was over 100 µM. The “effect on PDI1 activity (in words)” value (PDI1 enzyme) was “little effect”, the “PDI1 activity relative to mock” value (PDI1 enzyme; compound at 10 µM) was 102 (5) % and the “PDI1 activity relative to mock” value (PDI1 enzyme; compound at 50 µM) was 103 (4) %.

With PACMA31 the EC50 [1] was 6.1 µM, the CC50 (MDCK cells) was 12.5 µM and the “PDI1 activity relative to mock” value (PDI1 enzyme; compound at 10 µM) was 91 (3) %. The “PDI1 activity relative to mock” value (PDI1 enzyme; compound at 50 µM) was 71 (9) ^* % and the “reduction of viral proteins (NP or M1), Western blot” value (A/WS/33) was “dose-dependent”.

For “Epigallocatechin 3-gallate [Epigallocatechin 3-gallate (EGCG)]”, the EC50 [1] was 4.5 µM, the CC50 (MDCK cells) was 35.4 µM and the “PDI1 activity relative to mock” value (PDI1 enzyme; compound at 10 µM) was 68 (7) ^* %. For the same molecule, the “PDI1 activity relative to mock” value (PDI1 enzyme; compound at 50 µM) was 28 (5) ^* %.

For `O=c1c(O[C@@H]2O[C@H](CO)[C@@H](O)[C@H](O)[C@H]2O)c(-c2ccc(O)c(O)c2)oc2cc(O)cc(O)c12` [Isoquercetin (IQ), isoquercetin], the “SI for A/WS/33 (selectivity index)” value [1] was 90, the EC50 ([1]; Influenza A virus, H1N1, MDCK) was 0.5 µM and the EC50 [2, 5] was 1.2 µM. For the same molecule, the EC50 [3] was 1.2 µM, the CC50 at 24 h [4] was 45.5 µM and the “PDI1 activity relative to mock” value (PDI1 enzyme; compound at 10 µM) was 32 (5) ^* %. The “PDI1 activity relative to mock” value (PDI1 enzyme; compound at 50 µM) was 13 (8) ^* %.

With `CC(C)(C)N([O])C(C)(C)C` [Di-tert-butyl nitroxide (DTBN), Di-tert-butyl nitroxide] the EC50 [1] was 210 µM, the CC50 (MDCK cells) was over 1000 µM and the “PDI1 activity relative to mock” value (PDI1 enzyme; compound at 10 µM) was 67 (6) ^* %. For the same molecule, the “PDI1 activity relative to mock” value (PDI1 enzyme; compound at 50 µM) was 25 (9) ^* %.

In the case of `CC(=O)Oc1ccccc1C(=O)Nc1ncc([N+](=O)[O-])s1` [NTZ, nitazoxanide], the “SI for A/WS/33 (selectivity index)” value [1] is reported as 16, the EC50 ([1]; Influenza A virus, H1N1, MDCK) is reported as 0.8 µM and the EC50 [2, 5] is reported as 1.3 µM. The EC50 [3] was 1.5 µM, the CC50 at 24 h [4] was 12.8 µM and the “PDI1 activity relative to mock” value (PDI1 enzyme; compound at 10 µM) was 81 (2) ^* %. The “PDI1 activity relative to mock” value (PDI1 enzyme; compound at 50 µM) was 65 (4) ^* %.

With `COC1=C2C[C@@H](C)C[C@H](OC)[C@H](O)[C@@H](C)/C=C(\C)[C@H](OC(N)=O)[C@@H](OC)/C=C\C=C(/C)C(=O)NC(=CC1=O)C2=O` [GDA, geldanamycin] the EC50 ([1]; Influenza A virus, H1N1, MDCK) was over 10 µM, the “inhibition of replication of A/WS/33 (in words)” value [1] was “did not show any inhibitory activity” and the EC50 [2, 5] was over 10 µM. The EC50 [3] was over 10 µM, the “inhibition of replication of B/Lee/40 (in words)” value [3] was “did not show any inhibitory activity” and the “effect on PDI1 activity (in words)” value (PDI1 enzyme) was “little effect”. For the same molecule, the “PDI1 activity relative to mock” value (PDI1 enzyme; compound at 10 µM) was 102 (5) %, the “PDI1 activity relative to mock” value (PDI1 enzyme; compound at 50 µM) was 96 (2) % and the EC50 (Group A rotavirus SA11; Rotavirus A, MA104, read-out: EC50 rotavirus SA11 replication) was under 1 µM.

With `CCOC(=O)C1=C[C@@H](OC(CC)CC)[C@H](NC(C)=O)[C@@H](N)C1` [Oseltamivir, oseltamivir phosphate] the “SI for A/WS/33 (selectivity index)” value [1] was over 660, the EC50 ([1]; Influenza A virus, H1N1, MDCK) was 0.15 µM and the “inhibition of replication of A/WS/33 (in words)” value [1] was “potently inhibited”. The EC50 [2, 5] was 0.5 µM, the EC50 [3] was 1.1 µM and the “inhibition of replication of B/Lee/40 (in words)” value [3] was “potently inhibited”. The CC50 at 24 h [4] was over 100 µM, the “effect on PDI1 activity (in words)” value (PDI1 enzyme) was “little effect” and the “PDI1 activity relative to mock” value (PDI1 enzyme; compound at 10 µM) was 103 (6) %. The “PDI1 activity relative to mock” value (PDI1 enzyme; compound at 50 µM) was 95 (5) %.

Molecule `COC(=O)C1(C)c2[nH]c3ccccc3c2CCN1C(=O)CCl` (centres unmarked) [16F16] has an EC50 [1] of 5.1 µM, an EC50 [2] of 5.8 µM and a CC50 (MDCK cells) of 15 µM. For the same molecule, the “PDI1 activity relative to mock” value (PDI1 enzyme; compound at 10 µM) was 89 (6) % and the “PDI1 activity relative to mock” value (PDI1 enzyme; compound at 50 µM) was 59 (6) ^* %.

In the case of `CC[C@H](C)[C@H](N)C1=N[C@H](C(=O)N[C@@H](CC(C)C)C(=O)N[C@H](CCC(=O)O)C(=O)N[C@H](C(=O)N[C@H]2CCCCNC(=O)[C@H](CC(N)=O)NC(=O)[C@@H](CC(=O)O)NC(=O)[C@H](Cc3cnc[nH]3)NC(=O)[C@@H](Cc3ccccc3)NC(=O)[C@H]([C@@H](C)CC)NC(=O)[C@@H](CCCN)NC2=O)[C@@H](C)CC)CS1` [Bacitracin A, bacitracin A] ({Ileψ(thiazoline)Cys}-L[dE]IK[dOrn]I[dF]H[dD]N; lactam 4-C), the EC50 ([1]; Influenza A virus, H1N1, MDCK) is reported as over 500 µM, the EC50 [2, 5] is reported as over 500 µM and the EC50 [3] is reported as over 500 µM. For the same molecule, the “PDI1 activity relative to mock” value (PDI1 enzyme; compound at 10 µM) was 81 (3) ^* % and the “PDI1 activity relative to mock” value (PDI1 enzyme; compound at 50 µM) was 53 (12) ^* %.

With `C=CCNC1=C2C[C@@H](C)C[C@H](OC)[C@H](O)[C@@H](C)/C=C(\C)[C@H](OC(N)=O)[C@@H](OC)/C=C\C=C(/C)C(=O)NC(=CC1=O)C2=O` [17-AAG, 17-N-Allylamino-17-demethoxygeldanamycin] the “inhibition of replication of A/WS/33 (in words)” value [1] was “did not show any inhibitory activity”, the EC50 [1] was over 10 µM and the “inhibition of replication of B/Lee/40 (in words)” value [3] was “did not show any inhibitory activity”. It also gave an EC50 (Group A rotavirus SA11; read-out: EC50 rotavirus SA11 replication, MA104 cells) of under 1 µM.
